Assay results published in the supplement of paper PMC10307832.

Assays:
Experiment in all cases: relative viability (nuclei count vs DMSO), 5 days (fraction); higher = more cells survive
[1] = compound: C[C@@H](N)c1ccc(C(=O)Nc2ccnc3[nH]ccc23)cc1 + Nc1nc2[nH]cc(CCc3ccc(C(=O)N[C@@H](CCC(=O)O)C(=O)O)cc3)c2c(=O)[nH]1 [Pemetrexed] (partner 0.2 µM)
Procedure, shortened: (§1)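 Relative viability equals treated-well nuclei counts divided by vehicle-well nuclei counts. Counts came from 4× images of lung cancer cell lines grown in 1536-well plates for 5 days after pin-tool dosing on the day after seeding. Dosing used one drug alone or a fixed anchor-drug dose plus five library-drug doses (not always all listed) in √10 steps, and values are medians of duplicate plates.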

[2] = compound: C[C@@H](N)c1ccc(C(=O)Nc2ccnc3[nH]ccc23)cc1 + COc1cc2c(Oc3ccc(NC(=O)C4(C(=O)Nc5ccc(F)cc5)CC4)cc3F)ccnc2cc1OCCCN1CCOCC1 [Foretinib] (partner 0.25 µM)
Procedure, shortened: as §1

[3] = compound: C[C@@H](N)c1ccc(C(=O)Nc2ccnc3[nH]ccc23)cc1 + CC(=O)c1c(C)c2cnc(Nc3ccc(N4CCNCC4)cn3)nc2n(C2CCCC2)c1=O [Palbociclib] (partner 0.5 µM)
Procedure, shortened: as §1

[4] = compound: C1CNCCC1C2=CC(=NN2)C3=CC=NC=C3 + Cc1cc(Nc2cc(N3CCN(C)CC3)nc(Sc3ccc(NC(=O)C4CC4)cc3)n2)n[nH]1 [Tozasertib] (partner 0.1 µM)
Procedure, shortened: as §1

## UMC-11
[1]; first compound 0.04 µM
  relative viability: 0.915
[1]; first compound 0.1265 µM
  relative viability: 0.889
[1]; first compound 0.4 µM
  relative viability: 0.955
[1]; first compound 1.265 µM
  relative viability: 0.764
[1]; first compound 4 µM
  relative viability: 0.498
[2]; first compound 0.04 µM
  relative viability: 1.14
[2]; first compound 0.1265 µM
  relative viability: 1.1
[2]; first compound 0.4 µM
  relative viability: 1.12
[2]; first compound 1.265 µM
  relative viability: 1
[2]; first compound 4 µM
  relative viability: 0.694
[3]; first compound 0.1265 µM
  relative viability: 0.334
[3]; first compound 0.4 µM
  relative viability: 0.306
[3]; first compound 1.265 µM
  relative viability: 0.29
[3]; first compound 4 µM
  relative viability: 0.318
[4]; first compound 0.08 µM
  relative viability: 0.196
[4]; first compound 0.8 µM
  relative viability: 0.214
[4]; first compound 2.53 µM
  relative viability: 0.205
[4]; first compound 8 µM
  relative viability: 0.207
